Laboratory results: patent US5334594A, “Amphoteric tricyclic compound” (Hokoriku Pharmaceutical Co., Ltd., priority 1992, dated 1994)
Where a name gives a salt, the structure may show the parent alone. Read-outs that look alike come from different tables or passages of the source.

Legend:
[1] = tested on: compound 48/80-induced lethality (antihistaminic (H1) activity); assay: Inhibitory effect on compound 48/80-induced lethality in rats (antihistaminic activity); format: in vivo, rat (male Wistar); settings: Rattus norvegicus, po, 2 h; 1 mg/kg orally one hour before compound 48/80 (1 mg/kg i.v.); survival after two hours; read-out: Survival rate
Procedure: 1. Inhibitory Effects on Compound 48/80-Induced Lethality in Rats (Antihistaminic Activity)
The evaluation of antihistaminic activity was carried out according to the method of Niemegeers et al. (Arch. Int. Pharmacodyn. Ther., 234, 164 (1978)).
Male Wistar rats, 6 weeks of age, were used in the experiments. Compound 48/80 (formaldehyde condensation product of p-methoxy-N-methylphenethylamine) was administered intravenously to rats at a lethal dose of 1 mg/kg. Survival rates were determined according to an all or non criteria by using the numbers of rats that survived after two hours. Test compounds (1 mg/kg) were administered orally to rats one hour before the administration of compound 48/80.

[2] = tested on: histamine-induced bronchoconstriction; assay: Inhibitory effects on histamine-induced bronchoconstriction in anesthetized guinea-pigs (antiasthmatic activity); format: in vivo, guinea-pig (male Hartley); settings: for ED50: Cavia porcellus, 2 h, read-out: Antiasthmatic activity (B) ED50
Procedure: 3. Inhibitory Effects on Histamine-Induced Bronchoconstriction in Anesthetized Guinea-Pigs (Antiasthmatic Activity)
The induction and evaluation of antiasthmatic activity were carried out according to the method of Makino et al. (J. Pharm. Pharmacol., 42, 236 (1990)).
Male Hartley guinea-pigs, 6 weeks of age, were anesthetized with urethane ( 1.5 g/kg, i.p. ). The carotid artery and jugular vein were cannulated to measure arterial blood pressure and to facilitate intravenous histamine administration. The trachea was cannulated and the animals were ventilated using a respiratory pump (60 strokes/min; 4 ml/stroke). Changes in insufflation pressure induced by the administration of histamine (20 μg/kg, i.v.) at a constant airflow were constantly monitored as percentage values based on the maximum pressure (100%) (Bronchospasm tramsducer 7020, Ugo Basile). Test compounds were administered orally to animals two hours before the administration of histamine. The ED50 values (doses which induce 50% inhibition of histamine-induced broncho-constriction compared to inhibition observed in control) were calculated using dose-inhibition curves.

[3] = target: muscarinic acetylcholine receptor; assay: Inhibition of [^3 H]-QNB binding to rat cerebral cortex membrane (muscarinic acetylcholine receptor binding assay); settings: -log Ki by Cheng and Prusoff
[4] = tested on: 48 h homologous passive cutaneous anaphylaxis (PCA); assay: Inhibitory effects on 48 h homologous passive cutaneous anaphylaxis (PCA) in rats (antiallergic activity); format: in vivo, rat (male Wistar); settings: 1 mg/kg orally one hour before antigen challenge
Procedure: 2. Inhibitory Effects on 48 h Homologous Passive Cutaneous Anaphylaxis (PCA) in Rats (Antiallergic Activity)
The induction and evaluation of antiallergic activity were carried out according to the method of Makino et al. (Japan J. Pharmacology, 52, 87 (1990)).
Male Wistar rats, 6 weeks of age, were passively sensitized by intracutaneous injection on the back at a volume of 0.1 ml of 20- or 40-fold diluted anti-DNP-As rat serum. After 48 hours, the animals were challenged by an intravenous injection of 0.5 ml saline solution containing 1 mg of DNP-As and 5 mg of Evans blue. The animals were sacrificed 30 minutes after the challenge and then the extravasated dye was extracted with 1N KOH and acetone. After neutralization with 1N H3 PO4, the amount of dye was determined by measuring the absorbance of the extract at 620 nm. Test compounds (1 mg/kg) were orally administered to rats one hour before the antigen challenge. The inhibitory activity of test compounds were obtained as percent inhibition of PCA by comparing the results obtained from control rats.

histamine (H1) receptor = target: T1, histamine (H1) receptor (Cavia porcellus, UniProt P31389); assay: Inhibitory effects on ex vivo [^3 H]-mepyramine binding to guinea-pig cerebral cortex (degree of penetration into brain); format: in vivo, guinea-pig (male Hartley); settings: for ED50: 2 h, oral, two hours, ex vivo [^3 H]-mepyramine binding, guinea-pig cerebral cortex, read-out: Degree of penetration activity (A) ID50; for Selectivity (C/B): ratio of ID50 (brain penetration, C) to ED50 (antiasthmatic activity, B)
T1 construct: Separated cerebral cortices were homogenized in 50-folds volume of 50 mM Na/K-phosphate buffer (pH 7.4); from tissue; host or cells: guinea-pig cerebral cortex, crude membrane fraction (homogenate)
Procedure: 4. Inhibitory Effects on Ex Vivo [^3 H]-Mepyramine Binding to Guinea-Pig Cerebral Cortex (Degree of Penetration into Brain)
The evaluation of histamine (H1) receptor affinity on guinea-pig cerebral cortex was carried out according to the method of Ahn et al. (Eur. J. Pharmacol., 127, 153 (1986)).
Male Hartley guinea-pigs, 6 weeks of age, were administered orally with test compounds or vehicles. After two hours, animals were killed by exsanguination and brains were rapidly isolated. Separated cerebral cortices were homogenized in 50-folds volume of 50 mM Na/K-phosphate buffer (pH 7.4). These homogenates were used as crude membrane fractions for receptor binding assay. [^3 H]-mepyramine was used as a radio-active ligand. […] The ID50 values (doses which induce 50% inhibition of specific binding of vehicle treated group) were calculated using dose-inhibition curves.

[5] = oral, two hours before histamine (20 μg/kg, i.v.), anesthetized guinea-pigs

T1 sequence (P31389 whole entry): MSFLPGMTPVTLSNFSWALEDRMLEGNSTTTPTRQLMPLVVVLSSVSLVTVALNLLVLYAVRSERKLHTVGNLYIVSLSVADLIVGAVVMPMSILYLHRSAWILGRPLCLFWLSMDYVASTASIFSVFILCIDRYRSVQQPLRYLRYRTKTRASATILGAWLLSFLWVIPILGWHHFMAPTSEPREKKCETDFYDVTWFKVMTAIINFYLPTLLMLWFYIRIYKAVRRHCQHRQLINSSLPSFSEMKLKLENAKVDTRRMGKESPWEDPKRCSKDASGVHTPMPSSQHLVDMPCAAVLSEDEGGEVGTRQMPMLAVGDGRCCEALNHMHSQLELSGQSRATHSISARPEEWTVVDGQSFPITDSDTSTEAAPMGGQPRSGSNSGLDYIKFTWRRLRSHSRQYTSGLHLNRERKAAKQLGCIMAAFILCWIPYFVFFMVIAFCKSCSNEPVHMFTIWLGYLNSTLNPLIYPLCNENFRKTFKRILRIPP

| SMILES | responders at 1 mg/kg [1] [%] | pKi [3] | Antiallergic activity (A) inhibition (%) [4] [%] | further results |
| --- | --- | --- | --- | --- |
| O=C(O)CCCN1CCC(=C2c3ccc(F)cc3OCc3cccnc32)CC1 [Example 10-(2), 4-[4-(8-Fluoro-5,11-dihydrobenz[b]oxepino[4,3-b]pyridin-11-ylidene)piperidino]butyric Acid] | 100 |  |  |  |
| CC(=O)N1CCC(=C2c3ccc(Cl)cc3OCc3cccnc32)CC1 [Reference compound C] | 20 | 5.72 | -11 | Antiasthmatic activity (B) ED50 [2, 5]: No effect (1 mg/kg) |
| CC(CN1CCC(=C2c3ccc(F)cc3OCc3cccnc32)CC1)C(=O)O (stereo not shown) [Example 14-(2), 3-[4-(8-Fluoro-5,11-dihydrobenz[b]oxepino[4,3-b]pyridin-11-ylidene)piperidino]-2-methylpropionic Acid] | 100 |  |  |  |
| O=C(O)CCCN1CCC(=C2c3ccc(F)cc3Oc3cccnc32)CC1 [Example 23-(2), 4-[4-(7-Fluoro-10H-benzo[b]pyrano[3,2-b]pyridin-10-ylidene)piperidino]butyric Acid] | 100 |  |  |  |
| O=C(O)CCCCN1CCC(=C2c3ccc(F)cc3OCc3cccnc32)CC1 [Example 11-(2), 5-[4-(8-Fluoro-5,11-dihydrobenz[b]oxepino[4,3-b]pyridin-11-ylidene)piperidino]valetic Acid] | 100 |  |  |  |
| O=C(O)CCN1CCC(=C2c3cccc(Cl)c3OCc3cccnc32)CC1 [Example 4-(2), 3-[4-(7-Chloro-5,11-dihydrobenz[b]oxepino[4,3-b]pyridin-11-ylidene)piperidino]propionic Acid. Hydrochloride] | 100 |  |  |  |
| O=C(O)CCCCCN1CCC(=C2c3ccc(F)cc3OCc3cccnc32)CC1 [Example 12-(2), 6-[4-(8-Fluoro-5,11-dihydrobenz[b]oxepino[4,3-b]pyridin-11-ylidene)piperidino]hexanoic Acid . Hydrochloride] | 100 |  |  |  |
| O=C(O)CCN1CCC(=C2c3ccccc3Oc3cccnc32)CC1 [Example 8-(2), 3-[4-(10H-benzo[b]pyrano[3,2-b]pyridin-10-ylidene)piperidino]propionic Acid] | 100 |  |  |  |
| O=C(O)CCN1CCC(=C2c3ccc(F)cc3Oc3cccnc32)CC1 [Example 9-(2), 3-[4-(7-Fluoro-10H-benzo[b]pyrano[3,2-b]pyridin-10-ylidene)piperidino]propionic Acid] | 100 |  |  |  |
| O=C(O)CCN1CCC(=C2c3ccc(Cl)cc3OCc3cccnc32)CC1 [Example 5-(2), 3-[4-(8-Chloro-5,11-dihydrobenz[b]oxepino[4,3-b]pyridin-11-ylidene)piperidino]propionic Acid. Hydrochloride] | 100 | < 5 | 79 | ED50 [2, 5]: 0.023 mg/kg; ED50 (histamine (H1) receptor): 53 mg/kg; Selectivity (C/B) (histamine (H1) receptor): 2304 |
| O=C(O)CCCN1CCC(=C2c3ccc(Cl)cc3OCc3cccnc32)CC1 [Example 18-(2), 4-[4-(8-Chloro-5,11-dihydrobenz[b]oxepino[4,3-b]pyridin-11-ylidene)piperidino]butyric Acid. Hydrochloride] | 80 |  |  |  |
| CCOC(=O)CN1CCC(=C2c3ccc(Cl)cc3CCc3cccnc32)CC1 [Reference compound D, reference compound] | 40 | 5.84 | 41 | ED50 [2, 5]: 0.29 mg/kg; ED50 (histamine (H1) receptor): 11 mg/kg; Selectivity (C/B) (histamine (H1) receptor): 38 |
| CN1CCC(=C2c3ccccc3CCc3cccnc32)CC1 [Reference compound A, Azatadine, reference compound] | 60 | 8.47 | 77 | ED50 [2, 5]: 0.001 mg/kg; ED50 (histamine (H1) receptor): 0.028 mg/kg; Selectivity (C/B) (histamine (H1) receptor): 28 |
| O=C(O)CCN1CCC(=C2c3ccccc3OCc3cccnc32)CC1 [Example 1-(2), 3-[4-(5,11-Dihydrobenz[b]oxepino[4,3-b]pyridin-11-ylidene)piperidino]propionic Acid.Hydrochloride] | 80 |  | 80 | ED50 [2, 5]: 0.082 mg/kg; ED50 (histamine (H1) receptor): 36 mg/kg; Selectivity (C/B) (histamine (H1) receptor): 439 |
| O=C(O)CCN1CCC(=C2c3cc(Cl)ccc3OCc3cccnc32)CC1 [Example 6-(2), 3-[4-(9-Chloro-5,11-dihydrobenz[b]oxepino[4,3-b]pyridin-11-ylidene)piperidino]propionic Acid] | 100 |  |  |  |
| O=C(O)CCCCCN1CCC(=C2c3ccc(Cl)cc3OCc3cccnc32)CC1 [Example 21-(2), 6-[4-(8-Chloro-5,11-dihydrobenz[b]oxepino[4,3-b]pyridin-11-ylidene)piperidino]hexanoic Acid . Hydrochloride] | 100 |  |  |  |
| O=C(O)CCCCN1CCC(=C2c3ccc(Cl)cc3OCc3cccnc32)CC1 [Example 20-(2), 5-[4-(8-Chloro-5,11-dihydrobenz[b]oxepino[4,3-b]pyridin-11-ylidene)piperidino]valeric Acid. Hydrochloride] | 100 |  |  |  |
| O=C(O)CCN1CCC(=C2c3ccc(F)cc3OCc3cccnc32)CC1 [Example 2-(2), 3-[4-(8-Fluoro-5,11-dihydrobenz[b]oxepino[4,3-b]pyridin-11-ylidene)piperidino]propionic Acid] | 100 | < 5 | 78 | ED50 [2, 5]: 0.046 mg/kg; ED50 (histamine (H1) receptor): 32 mg/kg; Selectivity (C/B) (histamine (H1) receptor): 696 |
| CCOC(=O)N1CCC(=C2c3ccc(Cl)cc3CCc3cccnc32)CC1 [Reference compound B, Loratadine] | 60 | 6.04 | 38 | ED50 ([2]; po): 0.13 mg/kg |
